10 molecules from patent US20230398102A1 (Bausch Health Ireland Limited, priority 2020, published 2023) can be followed below.

Holding throughout (assay type): physicochemical
Data set [1] can be described thus: Excipient compatibility: rifaximin solutions stored at various temperatures, chemical purity by HPLC. The note with it: rifaximin in named solvent.
The nature of data set [2]: Compatibility of individual excipients with hard gelatin capsule shells. The note with it: Hard Gel Capsules. The procedure:
(§1) The physical compatibility of individual excipients with gelatin shell matrix was investigated. For hard gelatin capsules, solvent was filled into hard capsules and placed in scintillation vials. For soft gelatin capsules, each capsule was dipped into the excipient and then placed in scintillation vials. The vials were then subjected to various temperature conditions for up to 4 weeks. Capsules were then evaluated for physical changes (softening or hardening of capsule shell).
(§2) Hard gel capsules were purchased from VWR (catalogue number 70102) with a volume of 0.68 mL, diameter of 6.63 mm, a length of 19.0 mm and size 1. Soft gel capsules were Advil liquid-gels, 200 mg strength, 80 counts.

Data set [3] can be described thus: Compatibility of individual excipients with soft gelatin capsule shells. The settings on record: Soft Gel Capsules. The procedure:
as §1, §2

As to `OCc1ccccc1` [Benzyl alcohol], the “Rifaximin % Label Claim (LC)” value was 99.3 % Label Claim (LC) in data set [1] (T0); 99.8 % Label Claim (LC) in data set [1] (T 2 weeks, 25° C.); 96.3 % Label Claim (LC) in data set [1] (T 2 weeks, 40° C.); 96.9 % Label Claim (LC) in data set [1] (T 2 weeks, 50° C.); 98.2 % Label Claim (LC) in data set [1] (T 4 weeks, 25° C.); 94.0 % Label Claim (LC) in data set [1] (T 4 weeks, 40° C.). For the same molecule, the “Rifaximin % Label Claim (LC)” value in data set [1] (T 4 weeks, 50° C.) is reported as 93.0 % Label Claim (LC). Besides, the “Physical change (Yes or No)” value in data set [2] (T 2 weeks, 25° C.) is “Yes”; in data set [2] (T 2 weeks, 40° C.), “Yes”; in data set [2] (T 4 weeks, 25° C.), “Yes”; in data set [2] (T 4 weeks, 40° C.), “Yes”.

For the molecule `CCOC(=O)CCCCCCCCC(=O)OCC` [Diethyl sebacate], the “Rifaximin % Label Claim (LC)” value was 102.7 % Label Claim (LC) in data set [1] (T0); 102.1 % Label Claim (LC) in data set [1] (T 2 weeks, 25° C.); 101.7 % Label Claim (LC) in data set [1] (T 2 weeks, 40° C.); 101.7 % Label Claim (LC) in data set [1] (T 2 weeks, 50° C.); 101.1 % Label Claim (LC) in data set [1] (T 4 weeks, 25° C.); 98.8 % Label Claim (LC) in data set [1] (T 4 weeks, 40° C.). In data set [1] (T 4 weeks, 50° C.), the “Rifaximin % Label Claim (LC)” value is recorded as 99.8 % Label Claim (LC). Besides, the “Physical change (Yes or No)” value in data set [2] (T 2 weeks, 25° C.) is on record as “No”; in data set [2] (T 2 weeks, 40° C.), “No”; in data set [2] (T 4 weeks, 25° C.), “No”; in data set [2] (T 4 weeks, 40° C.) it was “No”.

Turning to `CCOCCOCCO` [Diethylene glycol monoethyl ether], the “Physical change (Yes or No)” value in data set [2] (T 2 weeks, 25° C.) is on record as “No”; in data set [2] (T 2 weeks, 40° C.), “No”; in data set [2] (T 2 weeks, 50° C.), “No”; in data set [2] (T 4 weeks, 25° C.) it was “No”; in data set [2] (T 4 weeks, 40° C.) it was “No”; in data set [2] (T 4 weeks, 50° C.), “No”.

On to `CC(C)OC(=O)CCCCC(=O)OC(C)C` [Diisopropyl adipate], for which the “Rifaximin % Label Claim (LC)” value in data set [1] (T0) was 97.6 % Label Claim (LC); in data set [1] (T 2 weeks, 25° C.), 95.3 % Label Claim (LC); in data set [1] (T 2 weeks, 40° C.), 71.3 % Label Claim (LC); in data set [1] (T 2 weeks, 50° C.) it was 50.3 % Label Claim (LC); in data set [1] (T 4 weeks, 25° C.), 95.1 % Label Claim (LC); in data set [1] (T 4 weeks, 40° C.) it was 64.8 % Label Claim (LC). In addition, the “Rifaximin % Label Claim (LC)” value in data set [1] (T 4 weeks, 50° C.) is given as 30.4 % Label Claim (LC).

Consider `CCCCC/C=C\C/C=C\CCCCCCCC(=O)OCC(O)CO` (stereo not shown) [Glyceryl monolinoleate], for which the “Rifaximin % Label Claim (LC)” value in data set [1] (T0) is given as 102.7 % Label Claim (LC); in data set [1] (T 2 weeks, 25° C.), 98.7 % Label Claim (LC); in data set [1] (T 2 weeks, 40° C.), 100.0 % Label Claim (LC); in data set [1] (T 2 weeks, 50° C.), 97.4 % Label Claim (LC); in data set [1] (T 4 weeks, 25° C.), 100.6 % Label Claim (LC); in data set [1] (T 4 weeks, 40° C.), 100.0 % Label Claim (LC). Further, the “Rifaximin % Label Claim (LC)” value in data set [1] (T 4 weeks, 50° C.) is on record as 92.9 % Label Claim (LC). Moreover, the “Physical change (Yes or No)” value in data set [2] (T 2 weeks, 25° C.) was “No”; in data set [2] (T 2 weeks, 40° C.), “No”; in data set [2] (T 2 weeks, 50° C.) it was “No”; in data set [2] (T 4 weeks, 25° C.) it was “No”; in data set [2] (T 4 weeks, 40° C.), “No”; in data set [2] (T 4 weeks, 50° C.), “No”. Moreover, the “Physical change (Yes or No)” value is “No” in data set [3] (T 2 weeks, 25° C.); “No” in data set [3] (T 2 weeks, 40° C.); “No” in data set [3] (T 2 weeks, 50° C.); “No” in data set [3] (T 4 weeks, 25° C.); “No” in data set [3] (T 4 weeks, 40° C.); “No” in data set [3] (T 4 weeks, 50° C.).

`CCCCCCCC/C=C\CCCCCCCC(=O)OCC(O)CO` (stereo not shown) [Glyceryl monooleate (Type 40), Glyceryl monooleate]: the “Rifaximin % Label Claim (LC)” value is given as 92.7 % Label Claim (LC) in data set [1] (T0); 96.4 % Label Claim (LC) in data set [1] (T 2 weeks, 25° C.); 58.3 % Label Claim (LC) in data set [1] (T 2 weeks, 40° C.); 48.9 % Label Claim (LC) in data set [1] (T 2 weeks, 50° C.); 95.0 % Label Claim (LC) in data set [1] (T 4 weeks, 25° C.); 59.0 % Label Claim (LC) in data set [1] (T 4 weeks, 40° C.). In data set [1] (T 4 weeks, 50° C.), the “Rifaximin % Label Claim (LC)” value is reported as 41.7 % Label Claim (LC). Moreover, the “Physical change (Yes or No)” value in data set [2] (T 2 weeks, 25° C.) is “No”; in data set [2] (T 2 weeks, 40° C.), “No”; in data set [2] (T 2 weeks, 50° C.), “No”; in data set [2] (T 4 weeks, 25° C.), “No”; in data set [2] (T 4 weeks, 40° C.), “No”; in data set [2] (T 4 weeks, 50° C.) it was “No”. Also, the “Physical change (Yes or No)” value in data set [3] (T 2 weeks, 25° C.) is recorded as “No”; in data set [3] (T 2 weeks, 40° C.) it was “Yes”; in data set [3] (T 2 weeks, 50° C.) it was “Yes”; in data set [3] (T 4 weeks, 25° C.), “No”; in data set [3] (T 4 weeks, 40° C.), “Yes”; in data set [3] (T 4 weeks, 50° C.) it was “Yes”.

With `CCCCCCCC/C=C\CCCCCCCCO` [Oleyl alcohol], the “Rifaximin % Label Claim (LC)” value is 98.7 % Label Claim (LC) in data set [1] (T0); 96.3 % Label Claim (LC) in data set [1] (T 2 weeks, 25° C.); 97.1 % Label Claim (LC) in data set [1] (T 2 weeks, 40° C.); 95.2 % Label Claim (LC) in data set [1] (T 2 weeks, 50° C.); 96.9 % Label Claim (LC) in data set [1] (T 4 weeks, 25° C.); 95.0 % Label Claim (LC) in data set [1] (T 4 weeks, 40° C.). In addition, in data set [1] (T 4 weeks, 50° C.), the “Rifaximin % Label Claim (LC)” value was 91.8 % Label Claim (LC). The “Physical change (Yes or No)” value in data set [2] (T 2 weeks, 25° C.) is listed as “No”; in data set [2] (T 2 weeks, 40° C.), “No”; in data set [2] (T 4 weeks, 25° C.), “No”; in data set [2] (T 4 weeks, 40° C.), “No”.

Regarding `CC(O)CO` (stereo not shown) [Propylene glycol], the “Rifaximin % Label Claim (LC)” value is recorded as 97.9 % Label Claim (LC) in data set [1] (T0); 96.9 % Label Claim (LC) in data set [1] (T 2 weeks, 25° C.); 97.0 % Label Claim (LC) in data set [1] (T 2 weeks, 40° C.); 95.7 % Label Claim (LC) in data set [1] (T 2 weeks, 50° C.); 96.2 % Label Claim (LC) in data set [1] (T 4 weeks, 25° C.); 95.6 % Label Claim (LC) in data set [1] (T 4 weeks, 40° C.). In addition, the “Rifaximin % Label Claim (LC)” value in data set [1] (T 4 weeks, 50° C.) was 98.6 % Label Claim (LC).

As to `OCCOCCOCCO` [Triethylene glycol], the “Rifaximin % Label Claim (LC)” value in data set [1] (T0) is recorded as 97.5 % Label Claim (LC); in data set [1] (T 2 weeks, 25° C.), 98.3 % Label Claim (LC); in data set [1] (T 2 weeks, 40° C.), 96.7 % Label Claim (LC); in data set [1] (T 2 weeks, 50° C.), 95.6 % Label Claim (LC); in data set [1] (T 4 weeks, 25° C.) it was 97.0 % Label Claim (LC); in data set [1] (T 4 weeks, 40° C.), 95.0 % Label Claim (LC). In addition, the “Rifaximin % Label Claim (LC)” value in data set [1] (T 4 weeks, 50° C.) is on record as 92.5 % Label Claim (LC). Besides, the “Physical change (Yes or No)” value is “Yes” in data set [2] (T 2 weeks, 25° C.); “Yes” in data set [2] (T 2 weeks, 40° C.); “Yes” in data set [2] (T 4 weeks, 25° C.); “Yes” in data set [2] (T 4 weeks, 40° C.).

Turning to `CCOCCOCCO` [diethylene glycol monoethyl ether], the “Rifaximin % Label Claim (LC)” value is listed as 97.3 % Label Claim (LC) in data set [1] (T0); 96.1 % Label Claim (LC) in data set [1] (T 2 weeks, 25° C.); 89.3 % Label Claim (LC) in data set [1] (T 2 weeks, 40° C.); 81.5 % Label Claim (LC) in data set [1] (T 2 weeks, 50° C.); 95.4 % Label Claim (LC) in data set [1] (T 4 weeks, 25° C.); 82.7 % Label Claim (LC) in data set [1] (T 4 weeks, 40° C.). Further, the “Rifaximin % Label Claim (LC)” value in data set [1] (T 4 weeks, 50° C.) is reported as 74.2 % Label Claim (LC).
